# Laboratory results from US12559529B2, “NPY2 receptor agonists” (Boehringer Ingelheim International GmbH, priority 2019, dated 2026).
# *1 amine or outer side, *2 acyl side, *3 side chain or, on linkers, in order; H or OH if unused. Where a SMILES comes first, the peptide text is derived from it. Side-chain parts run from the residue outwards. The star is where a group is joined. C18 diacid = O=C(O)CCCCCCCCCCCCCCCCC(=O)*; γGlu = O=C(O)[C@H](CCC(=O)[*:2])N[*:1]; Isovaleryl = CC(C)CC(=O)*; AEEA = NCCOCCOCC(=O)O
# Target: T1, Human Neuropeptide Y2 Receptor (Homo sapiens, UniProt P49146)
# T1 construct: purchased CHEMICON HTS066M
# T1 sequence (P49146 1-381): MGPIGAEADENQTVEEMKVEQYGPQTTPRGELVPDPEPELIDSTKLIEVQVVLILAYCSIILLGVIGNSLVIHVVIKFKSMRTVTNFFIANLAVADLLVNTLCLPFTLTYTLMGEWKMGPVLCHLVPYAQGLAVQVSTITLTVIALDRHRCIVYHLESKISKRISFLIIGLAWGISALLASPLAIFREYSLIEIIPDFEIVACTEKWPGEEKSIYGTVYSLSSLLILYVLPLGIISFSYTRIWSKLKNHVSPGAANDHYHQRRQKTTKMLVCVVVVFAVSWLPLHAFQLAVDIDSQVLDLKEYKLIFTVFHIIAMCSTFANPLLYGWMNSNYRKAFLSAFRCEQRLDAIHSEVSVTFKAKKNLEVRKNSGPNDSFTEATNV
# Assay: Radioligand binding competition assay (RLB)
# Settings: Table 3; human 125I-PYY (1-36) 0.02 nM, Y2 receptor membranes; read-out: Ki
# Summary of the method: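 Competition binding at commercial human NPY Y2 membrane preparations, 0.5 μg protein per well, 2 h incubation at room temperature. Bound and free ligand were separated on GF/C filters and counted; IC50 was fitted by nonlinear regression.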
row,Ki [nM],Structure (SMILES)
1,4.85,"CC(C)CC(=O)N[C@@H](C)C(=O)N1CCC[C@H]1C(=O)N[C@@H](CCC(=O)O)C(=O)N[C@@H](CCCCNC(=O)COCCOCCNC(=O)COCCOCCNC(=O)CC[C@H](NC(=O)CCCCCCCCCCCCCCCCC(=O)O)C(=O)O)C(=O)N1CCC[C@H]1C(=O)N[C@@H](CCC(=O)O)C(=O)N[C@@H](CCC(=O)O)C(=O)N[C@@H](CC(=O)O)C(=O)N[C@@H](C)C(=O)N[C@@H](CO)C(=O)N1CCC[C@H]1C(=O)N[C@@H](CCC(=O)O)C(=O)N[C@@H](CCC(=O)O)C(=O)N[C@H](C(=O)N[C@@H](CCC(N)=O)C(=O)N[C@@H](CCCNC(=N)N)C(=O)N[C@@H](Cc1ccc(O)cc1)C(=O)N[C@@H](CCC(=O)O)C(=O)N[C@H](C(=O)N[C@@H](CO)C(=O)N[C@@H](CC(C)C)C(=O)N[C@@H](CCCNC(=N)N)C(=O)N[C@@H](Cc1c[nH]cn1)C(=O)N[C@@H](Cc1ccc(O)cc1)C(=O)N[C@@H](Cc1ccc(O)cc1)C(=O)N[C@@H](CC(N)=O)C(=O)N[C@@H](Cc1c[nH]c2ccccc12)C(=O)N[C@@H](CC(C)C)C(=O)N[C@H](C(=O)N[C@@H](CCCNC(=N)N)C(=O)N[C@@H](CCC(N)=O)C(=O)N[C@@H](CCCNC(=N)N)C(=O)N[C@@H](Cc1ccc(O)cc1)C(N)=O)[C@@H](C)O)C(C)C)[C@@H](C)O [Compound 37, N{alpha-4}-(3-methylbutanoyl)-N{epsilon-7}-[2-(2-{2-[2-(2-{2-[(4S)-4-carboxy-4-(17-carboxyheptadecanamido)butanamido]ethoxy}ethoxy)acetamido]ethoxy}ethoxy)acetamido]-[4A,7K,9E,17T,18Q,21E,22V,28Y,30W,31L]hPYY (4-36)]"
2,1.21,"CC(C)CC(=O)N[C@@H](C)C(=O)N1CCC[C@H]1C(=O)N[C@@H](CCC(=O)O)C(=O)N[C@@H](CCCCNC(=O)COCCOCCNC(=O)COCCOCCNC(=O)CC[C@H](NC(=O)CCCCCCCCCCCCCCCCC(=O)O)C(=O)O)C(=O)N1CCC[C@H]1C(=O)N[C@@H](CCC(=O)O)C(=O)N[C@@H](CCC(=O)O)C(=O)N[C@@H](CC(=O)O)C(=O)N[C@@H](C)C(=O)N[C@H](C(=O)N1CCC[C@H]1C(=O)N[C@@H](CCC(=O)O)C(=O)N[C@@H](CCC(=O)O)C(=O)N[C@H](C(=O)N[C@@H](CCC(N)=O)C(=O)N[C@@H](CCCNC(=N)N)C(=O)N[C@@H](Cc1ccc(O)cc1)C(=O)N[C@@H](Cc1ccc(O)cc1)C(=O)N[C@H](C(=O)N[C@@H](CO)C(=O)N[C@@H](CC(C)C)C(=O)N[C@@H](CCCNC(=N)N)C(=O)N[C@@H](Cc1c[nH]cn1)C(=O)N[C@@H](Cc1ccc(O)cc1)C(=O)N[C@@H](Cc1ccc(O)cc1)C(=O)N[C@@H](CC(N)=O)C(=O)N[C@@H](Cc1c[nH]c2ccccc12)C(=O)N[C@@H](CC(C)C)C(=O)N[C@H](C(=O)N[C@@H](CCCNC(=N)N)C(=O)N[C@@H](CCC(N)=O)C(=O)N[C@@H](CCCNC(=N)N)C(=O)N[C@@H](Cc1ccc(O)cc1)C(N)=O)[C@@H](C)O)C(C)C)[C@@H](C)O)[C@@H](C)O [Compound 40, N{alpha-4}-(3-methylbutanoyl)-N{epsilon-7}-[2-(2-{2-[2-(2-{2-[(4S)-4-carboxy-4-(17-carboxyheptadecanamido)butanamido]ethoxy}ethoxy)acetamido]ethoxy}ethoxy)acetamido]-[4A,7K,9E,13T,17T,18Q,22V,28Y,30W,31L]hPYY (4-36)]"
3,5.92,"CC(C)CC(=O)N[C@@H](C)C(=O)N1CCC[C@H]1C(=O)N[C@@H](CCC(=O)O)C(=O)N[C@@H](CCCCNC(=O)COCCOCCNC(=O)COCCOCCNC(=O)CC[C@H](NC(=O)CCCCCCCCCCCCCCCCC(=O)O)C(=O)O)C(=O)N1CCC[C@H]1C(=O)N[C@@H](CCC(=O)O)C(=O)N[C@@H](CCC(=O)O)C(=O)N[C@@H](C)C(=O)N[C@@H](C)C(=O)N[C@@H](CO)C(=O)N1CCC[C@H]1C(=O)N[C@@H](CCC(=O)O)C(=O)N[C@@H](CCC(=O)O)C(=O)N[C@@H](CC(C)C)C(=O)N[C@@H](CCC(N)=O)C(=O)N[C@@H](CCCNC(=N)N)C(=O)N[C@@H](Cc1ccc(O)cc1)C(=O)N[C@@H](Cc1ccc(O)cc1)C(=O)N[C@H](C(=O)N[C@@H](CO)C(=O)N[C@H](C(=O)N[C@@H](CCCNC(=N)N)C(=O)N[C@@H](Cc1c[nH]cn1)C(=O)N[C@@H](Cc1ccc(O)cc1)C(=O)N[C@@H](Cc1ccc(O)cc1)C(=O)N[C@@H](CC(N)=O)C(=O)N[C@@H](Cc1c[nH]c2ccccc12)C(=O)N[C@@H](CC(C)C)C(=O)N[C@H](C(=O)N[C@@H](CCCNC(=N)N)C(=O)N[C@@H](CCC(N)=O)C(=O)N[C@@H](CCCNC(=N)N)C(=O)N[C@@H](Cc1ccc(O)cc1)C(N)=O)[C@@H](C)O)[C@@H](C)O)C(C)C [Compound 42, N{alpha-4}-(3-methylbutanoyl)-N{epsilon-7}-[2-(2-{2-[2-(2-{2-[(4S)-4-carboxy-4-(17-carboxyheptadecanamido)butanamido]ethoxy}ethoxy)acetamido]ethoxy}ethoxy)acetamido]-[4A,7K,9E,11A,18Q,22V,24T,28Y,30W,31L]hPYY (4-36)] (Isovaleryl-APEK([AEEA-AEEA-γGlu-C18 diacid])PEEAASPEELQRYYVSTRHYYNWLTRQRY-NH2)"
4,0.4,"CC(C)CC(=O)N[C@@H](C)C(=O)N1CCC[C@H]1C(=O)N[C@@H](CCC(=O)O)C(=O)N[C@@H](CCCCNC(=O)COCCOCCNC(=O)COCCOCCNC(=O)CC[C@H](NC(=O)CCCCCCCCCCCCCCCCC(=O)O)C(=O)O)C(=O)N1CCC[C@H]1C(=O)N[C@@H](CCC(=O)O)C(=O)N[C@@H](C)C(=O)N1CCC[C@H]1C(=O)N[C@@H](C)C(=O)N[C@@H](CO)C(=O)N1CCC[C@H]1C(=O)N[C@@H](CCC(=O)O)C(=O)N[C@@H](CCC(=O)O)C(=O)N[C@@H](CC(C)C)C(=O)N[C@@H](CCC(N)=O)C(=O)N[C@@H](CCCNC(=N)N)C(=O)N[C@@H](Cc1ccc(O)cc1)C(=O)N[C@@H](Cc1ccc(O)cc1)C(=O)N[C@H](C(=O)N[C@@H](CO)C(=O)N[C@@H](CC(C)C)C(=O)N[C@@H](CCCNC(=N)N)C(=O)N[C@@H](Cc1c[nH]cn1)C(=O)N[C@@H](Cc1ccc(O)cc1)C(=O)N[C@@H](Cc1ccc(O)cc1)C(=O)N[C@@H](CC(N)=O)C(=O)N[C@@H](Cc1c[nH]c2ccccc12)C(=O)N[C@@H](CC(C)C)C(=O)N[C@H](C(=O)N[C@@H](CCCNC(=N)N)C(=O)N[C@@H](CCC(N)=O)C(=O)N[C@@H](CCCNC(=N)N)C(=O)N[C@@H](Cc1ccc(O)cc1)C(N)=O)[C@@H](C)O)C(C)C [Compound 43, N{alpha-4}-(3-methylbutanoyl)-N{epsilon-7}-[2-(2-{2-[2-(2-{2-[(4S)-4-carboxy-4-(17-carboxyheptadecanamido)butanamido]ethoxy}ethoxy)acetamido]ethoxy}ethoxy)acetamido]-[4A,7K,9E,10A,11P,18Q,22V,28Y,30W,31L]hPYY (4-36)] (Isovaleryl-APEK([AEEA-AEEA-γGlu-C18 diacid])PEAPASPEELQRYYVSLRHYYNWLTRQRY-NH2)"
5,4.44,"CC[C@H](C)[C@H](NC(=O)[C@H](Cc1c[nH]c2ccccc12)NC(=O)[C@H](CC(N)=O)NC(=O)[C@H](Cc1ccc(O)cc1)NC(=O)[C@H](Cc1ccc(O)cc1)NC(=O)[C@H](Cc1c[nH]cn1)NC(=O)[C@H](CCCNC(=N)N)NC(=O)[C@H](CC(C)C)NC(=O)[C@H](CO)NC(=O)[C@@H](NC(=O)[C@H](Cc1ccc(O)cc1)NC(=O)[C@H](Cc1ccc(O)cc1)NC(=O)[C@H](CCCNC(=N)N)NC(=O)[C@H](CCC(N)=O)NC(=O)[C@H](CC(C)C)NC(=O)[C@H](CCC(=O)O)NC(=O)[C@H](CCC(=O)O)NC(=O)[C@@H]1CCCN1C(=O)[C@H](CO)NC(=O)[C@H](C)NC(=O)[C@H](CCC(=O)O)NC(=O)[C@H](CCC(=O)O)NC(=O)[C@H](CCC(=O)O)NC(=O)[C@@H]1CCCN1C(=O)[C@H](CCCCNC(=O)COCCOCCNC(=O)COCCOCCNC(=O)CC[C@H](NC(=O)CCCCCCCCCCCCCCCCC(=O)O)C(=O)O)NC(=O)[C@H](CCC(=O)O)NC(=O)[C@@H]1CCCN1C(=O)[C@H](C)NC(=O)CC(C)C)C(C)C)C(=O)N[C@H](C(=O)N[C@@H](CCCNC(=N)N)C(=O)N[C@@H](CCC(N)=O)C(=O)N[C@@H](CCCNC(=N)N)C(=O)N[C@@H](Cc1ccc(O)cc1)C(N)=O)[C@@H](C)O [Compound 44, N{alpha-4}-(3-methylbutanoyl)-N{epsilon-7}-[2-(2-{2-[2-(2-{2-[(4S)-4-carboxy-4-(17-carboxyheptadecanamido)butanamido]ethoxy}ethoxy)acetamido]ethoxy}ethoxy)acetamido]-[4A,7K,9E,11E,18Q,22V,28Y,30W,31I]hPYY (4-36)]"
